Experiment [1] has as its target T1, Biotinylated KRAS G12C protein (KRAS G12C/C51S/C80L/C118S, SEQ ID NO: 1) (Homo sapiens, UniProt P01116, C118S/C51S/C80L/G12C).
T1 construct: 183 amino acids; biotin on K10
The experiment can be described thus: SOS-catalyzed nucleotide exchange assay (TR-FRET). The format is biochemical. The settings on record: in vitro apparent potency; preincubation time of 60 minutes prior to addition of SOS. On the procedure:
The SOS-catalyzed nucleotide exchange assay utilizes a preformed complex of recombinant biotinylated KRAS protein containing G12C/C51S/C80L/C118S mutations (183 amino acids; biotin on K10; leader sequence which is an AviTag; referred to as SEQ ID NO: 1 or “Biotinylated KRAS G12C protein” hereafter), Bodipy-GDP, and Terbium-streptavidin. Compounds are added to this complex and then after 60 minutes, the mixture is treated with recombinant SOS protein and unlabeled GTP. Small molecule inhibitors stabilize the Bodipy-GDP complex whereas the untreated protein rapidly exchanges Bodipy-GDP for unlabeled GTP resulting in reduced TR-FRET signal.
Biotinylated KRAS G12C protein (SEQ ID NO: 1) is diluted to 2 μM in an EDTA buffer (20 mM HEPES, 150 mM sodium chloride, 10 mM EDTA, and 0.01% Tween) and incubated at room temperature for one hour. This mixture is then further diluted to 90nM in an assay buffer (20 mM HEPES, 150 mM sodium chloride, 10 mM magnesium chloride, and 0.005% Tween) containing 15 nM of Terbium-Streptavidin (Invitrogen, catalog #PV3577) and 900 nM of Bodipy-GDP and incubated at room temperature for six hours. This solution is referred to as Biotinylated KRAS G12C mixture.
Each test compound (10 mM stock in DMSO) is diluted in DMSO to make a 10-point, 3-fold dilution series in a 384-well low dead volume microplate (Labcyte, catalog #LP-0200). Once titrations are made, 10 nL of the diluted compounds is acoustically dispensed into a 384-well plate (Corning, catalog #3820) using an Echo 550 (Labcyte).
Each well of the plate receives 3 μL Biotinylated KRAS G12C mixture that had been incubating for six hours and 3 μL of assay buffer using a BioRAPTR (Beckman Coulter) and is incubated at room temperature for 60 minutes. Each well then receives 3 μL of 240 nM recombinant human SOS protein and 9 mM GTP (Sigma, G8877) in assay buffer and is incubated at room temperature for 60 minutes.
The time-resolved fluorescence resonance energy transfer signal of the plate is measured on an Envision (PerkinElmer) plate reader: Excitation filter=340 nm; emission1=495 nm; emission2=520 nm; dichroic mirror=D400/D505; delay time=100 μs. The signal of each well is determined as the ratio of the emission at 520 nm to that at 495 nm. Percent effect of each well is determined after normalization to control wells containing DMSO (no effect) or a saturating concentration of inhibitor (max effect). The apparent effect as a function of compound concentration is fit to a four parameter logistic equation.
A general note: TR-FRET usually uses a lanthanide donor and a delayed reading to cut background.

The test system of experiment [2] is phosphorylation of Erk in NCI-H358 cells. The experiment can be described thus: Cellular phospho-ERK assay. Type of experiment: cell-based. The conditions noted are these: 2 hour incubation, ratio of p-Erk vs total Erk, read-out: IC50 (nM) pERK (Cell). The protocol:
NCI-H358 cells (ATCC® CRL-5807™) were cultured in T150 flask in growth medium (RPMI medium 1640-GlutaMAX™-I (ThermoFisher Scientific 61870) containing 10% fetal bovine serum (ThermoFisher Scientific 10091148)). The cells were harvested in growth medium after TrypLE (ThermoFisher scientific 12604021) digestion and were seeded in 384-well collagen coated cell culture plate (Corning 356702) at a density of 15,000 cells/well, and incubated at 37° C., 5% CO2 overnight. The compound dose-response titrations were prepared and appropriate amounts of compounds were dispensed in a 384-well intermediate plate using an Echo 550 liquid handler. RPMI medium 1640-GluiaMAX™-I were added to the intermediate plate and transferred to 384-well cell culture plate, which was incubated at 37° C., 5% CO2 for 2 hours. After removal of medium from the plate, cells were lysed in lysis buffer from Alpha SureFire® Ultra™ Multiplex p-Erk and total Erk assay kit (PerkinElmer MPSU-PIERK) containing Halt™ Protease and Phosphotase inhibitor cocktail (ThermoFisher Scientific 78446) at room temperature with constant shaking at 300 rpm for 30 minutes. The cell lysates were then transferred to OptiPlate-384 plate (PerkinElmer 6005620) and the phosphorylation of Erk and total Erk levels were detected by Alpha SureFire Ultra Multiplex p-Erk kit (PerkinElmer MPSU-PIERK) following the manufacturer's protocol. Assay plates were read on an EnVision Multimode Plate Reader (PerkinElmer), and the ratio of p-Erk vs total Erk in each well was used as the final readout. Dose response curves were analyzed using a 4-parameter logistic model to calculate IC50 values using spotfire software.

This note sets out measurements from US20230416266A1, “6,7-DIHYDRO-PYRANO[2,3-d]PYRIMIDINE INHIBITORS OF KRAS G12C MUTANT” (Merck Sharp & Dohme Corp., priority 2020, published 2023).

For orientation: IC50 means the concentration needed to halve the response being measured.

Read-outs that look alike come from different tables or passages of the source.

T1 sequence (P01116 with tags, fused parts or gaps isoform P01116-2 G12C/C51S/C80L/C118S): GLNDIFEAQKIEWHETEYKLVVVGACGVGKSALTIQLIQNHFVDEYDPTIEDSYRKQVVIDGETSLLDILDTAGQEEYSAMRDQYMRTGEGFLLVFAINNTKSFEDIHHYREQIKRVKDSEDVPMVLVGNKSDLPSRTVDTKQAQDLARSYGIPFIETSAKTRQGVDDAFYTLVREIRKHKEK

Regarding `C=CC(=O)N1CCN(c2nc(OC[C@@H]3CCCN3C)nc3c2CCC(c2cccc4cccc(C)c24)O3)C[C@@H]1CC#N` (mixture of isomers) [Compound 2, 2-((2S)-1-acryloyl-4-(7-(8-methylnaphthalen-1-yl)-2-(((S)-1-methylpyrrolidin-2-yl)methoxy)-6,7-dihydro-5H-pyrano[2,3-d]pyrimidin-4-yl)piperazin-2-yl)acetonitrile], the concentration for half-maximal inhibition (IC50) was determined as 17.5 nM in experiment [1] and 501 nM in experiment [2] (Homo sapiens, NCI-H358, 2 h).

As for `C=CC(=O)N1CCN(c2nc(OC[C@@H]3CCCN3C)nc3c2CCC(c2c(O)cccc2F)O3)C[C@@H]1CC#N` (mixture of isomers) [Compound 3, 2-((2S)-1-acryloyl-4-(7-(2-fluoro-6-hydroxyphenyl)-2-(((S)-1-methylpyrrolidin-2-yl)methoxy)-6,7-dihydro-5H-pyrano[2,3-d]pyrimidin-4-yl)piperazin-2-yl)acetonitrile], the IC50 in experiment [1] worked out at 793 nM; in experiment [2] (Homo sapiens, NCI-H358, 2 h), 15700 nM.

With `C=CC(=O)N1CCN(c2nc(C(=O)N[C@H](C)CN(C)C)nc3c2CCC(c2cccc4ccccc24)O3)C[C@@H]1CC#N` (mixture of isomers) [Compound 11, 4-((S)-4-Acryloyl-3-(cyanomethyl)piperazin-1-yl)-N-((R)-1-(dimethylamino)propan-2-yl)-7-(naphthalen-1-yl)-6,7-dihydro-5H-pyrano[2,3-d]pyrimidine-2-carboxamide], the half-inhibitory concentration (IC50) amounted to 1410 nM in experiment [1] and 21700 nM in experiment [2] (Homo sapiens, NCI-H358, 2 h).

`C=CC(=O)N1CCN(c2nc(OC[C@@H]3CCCN3C)nc3c2CCC(c2cccc4ccc5[nH]ncc5c24)O3)C[C@@H]1CC#N` (mixture of isomers) [Compound 12, 2-((2S)-4-(7-(3H-benzo[e]indazol-9-yl)-2-(((S)-1-methylpyrrolidin-2-yl)methoxy)-6,7-dihydro-5H-pyrano[2,3-d]pyrimidin-4-yl)-1-acryloylpiperazin-2-yl)acetonitrile]: the IC50 in experiment [1] turned out to be 87.1 nM; in experiment [2] (Homo sapiens, NCI-H358, 2 h), 18500 nM.

For the molecule `C=CC(=O)N1CCN(c2nc(OC[C@@H]3CCCN3C)nc3c2CCC(c2cccc4ccccc24)O3)C[C@@H]1CC#N` (single isomer, unassigned) [Compound 1a], the IC50 in experiment [1] is 11.4 nM; in experiment [2] it was 578 nM.

On to `C=CC(=O)N1CCN(c2nc(OC[C@@H]3CCCN3C)nc3c2CCC(c2cccc4ccccc24)O3)C[C@@H]1CC#N` (single isomer, unassigned) [Compound 1b], for which the IC50 in experiment [1] came to 395 nM; in experiment [2], 9020 nM.

In the case of `C=CC(=O)N1CCN(c2nc(OC[C@@H]3CCCN3C)nc3c2CCC(c2c(Cl)c(C)cc4[nH]ncc24)O3)C[C@@H]1CC#N` (single isomer, unassigned) [Compound 4a], the IC50 in experiment [1] came out at 104 nM; in experiment [2] (Homo sapiens, NCI-H358, 2 h), 19200 nM.

For the molecule `C=CC(=O)N1CCN(c2nc(OC[C@@H]3CCCN3C)nc3c2CCC(c2c(Cl)c(C)cc4[nH]ncc24)O3)C[C@@H]1CC#N` (single isomer, unassigned) [Compound 4b], the IC50 in experiment [1] was determined as 2690 nM; in experiment [2] it was 30000 nM.

As for `C=CC(=O)N1CCN(c2nc(OC[C@@H]3CCCN3C)nc3c2CCC(c2cccc4c(F)cccc24)O3)C[C@@H]1CC#N` (single isomer, unassigned) [Compound 5a], the IC50 stood at 88.6 nM in experiment [1] and 6350 nM in experiment [2] (Homo sapiens, NCI-H358, 2 h).

`C=CC(=O)N1CCN(c2nc(OC[C@@H]3CCCN3C)nc3c2CCC(c2cccc4c(F)cccc24)O3)C[C@@H]1CC#N` (single isomer, unassigned) [Compound 5b]: the figures for the IC50 in experiment [1] and in experiment [2] were 195 nM and 10300 nM, respectively.

Turning to `C=CC(=O)N1CCN(c2nc(OC[C@@H]3CCCN3C)nc3c2CC(F)(F)C(c2cccc4ccccc24)O3)C[C@@H]1CC#N` (single isomer, unassigned) [Compound 7a], the half-inhibitory concentration (IC50) in experiment [1] worked out at 13.8 nM; in experiment [2], 394 nM.

Regarding `C=CC(=O)N1CCN(c2nc(OC[C@@H]3CCCN3C)nc3c2CC(F)(F)C(c2cccc4ccccc24)O3)C[C@@H]1CC#N` (single isomer, unassigned) [Compound 7b], the IC50 in experiment [1] was 84.8 nM; in experiment [2], 2380 nM.

For `C=CC(=O)N1CCN(c2nc(OC[C@@H]3CCCN3C)nc3c2CCC(c2cccc4cc(O)ccc24)O3)C[C@@H]1CC#N` (single isomer, unassigned) [Compound 8a], the IC50 is 817 nM in experiment [1] and 26200 nM in experiment [2] (Homo sapiens, NCI-H358, 2 h).

Take `C=CC(=O)N1CCN(c2nc(OC[C@@H]3CCCN3C)nc3c2CC(C)C(c2cccc4ccccc24)O3)C[C@@H]1CC#N` (single isomer, unassigned) [Compound 9a]: the half-inhibitory concentration (IC50) in experiment [1] is 259 nM; in experiment [2], 13200 nM.

Consider `C=CC(=O)N1CCN(c2nc(OC[C@@H]3CCCN3C)nc3c2CC(C)C(c2cccc4ccccc24)O3)C[C@@H]1CC#N` (single isomer, unassigned) [Compound 9b], for which the half-inhibitory concentration (IC50) in experiment [1] came out at 2130 nM; in experiment [2], 21300 nM.

For `C=CC(=O)N1CCN(c2nc(OC[C@@H]3CCCN3C)nc3c2CC(C)C(c2cccc4ccccc24)O3)C[C@@H]1CC#N` (single isomer, unassigned) [Compound 10a], the concentration for half-maximal inhibition (IC50) was 12.9 nM in experiment [1] and 704 nM in experiment [2].

Consider `C=CC(=O)N1CCN(c2nc(OC[C@@H]3CCCN3C)nc3c2CC(C)C(c2cccc4ccccc24)O3)C[C@@H]1CC#N` (single isomer, unassigned) [Compound 10b], for which the IC50 in experiment [1] is 153 nM; in experiment [2], 5230 nM.

On to `C=CC(=O)N1CCN(c2nc(OC[C@@H]3CCCN3C)nc3c2CCC(C)(c2cccc4ccccc24)O3)C[C@@H]1CC#N` (stereo partly drawn) [Compound 6, 2-((2S)-1-acryloyl-4-(7-methyl-2-(((S)-1-methylpyrrolidin-2-yl)methoxy)-7-(naphthalen-1-yl)-6,7-dihydro-5H-pyrano[2,3-d]pyrimidin-4-yl)piperazin-2-yl)acetonitrile], for which the concentration for half-maximal inhibition (IC50) is 632 nM in experiment [1] and 24100 nM in experiment [2] (Homo sapiens, NCI-H358, 2 h).
